Data: patent US20030176390A1, “Methods of treating insulin resistance syndrome and diabetes” (priority 2001, published 2003)
Like-named read-outs stand apart in the source and are kept apart here.

Experiments:
[1] = test system: rat adipocytes; assay: In vitro lipolysis assay (antilipolytic activity in rat adipocytes); format: cell-based; settings: norepinephrine-stimulated lipolysis, glycerol assayed, 60 min, read-out: Lipo ec50
Method: Determination of Antilipolytic Activity in Rat Adipocytes
Isolation of Adipocytes from Epididymal Fat Pads
Adipose tissue is removed from anesthetized rats and rinsed twice in incubation medium (2.09 g sodium bicarbonate and 0.04 g EDTA, disodium salt, in 1 L Krebs buffer). Each rat (300-350 g) yields approximately 4 mL of adipose tissue. The adipose tissue (35 mL) is cut into small pieces with scissors and washed with incubation medium (50 mL). The mixture is poured into the barrel of a 50 mL syringe to which is attached a short piece of clamped tubing instead of a needle. The aqueous phase is allowed to drain. A second wash with incubation medium is passed through the syringe. The tissue is added to 50 mL of collagenase solution (collagenase (90 mg), bovine serum albumin (BSA) (500 mg), and 0.1 M calcium chloride solution (1 mL), in incubation medium (50 mL)) in a 1 L bottle. The mixture is shaken in an environmental at 37° C. for about 60 minutes under an atmosphere of 95% oxygen/5% carbon dioxide to effect digestion of the tissue. The dispersed cells are poured through 2 layers of cheese cloth into a 100 mL plastic beaker. The undigested clumps in the cloth are rinsed once with incubation medium (20 mL). The cells in the beaker are centrifuged in 2 plastic tubes for 30 seconds at room temperature at 300 rpm. The aqueous phase is aspirated from beneath the loosely packed layer of floating fat cells and discarded. The adipocytes are gently poured into a 250 mL plastic beaker containing 100 mL of rinse solution (1 g BSA per 100 mL incubation medium). After gentle stirring the centrifugation step is repeated. Another wash with rinse solution follows. The cells are pooled and their volume is estimated with a graduated cylinder. The adipocytes are diluted in twice their volume of assay buffer (incubation medium (120 mL), BSA (1.2 g), pyruvic acid (13 mg)).
The assay is performed in 20 mL plastic scintillation vials and the total assay volume is 4.2 mL. Assay buffer (2.5 mL), diluted adipocytes (1.5 mL), and a solution of the compound to be tested (12.3 μL) adenosine agonist (12.3 μl; varying concentration) is incubated in the environmental shaker for 15 minutes, then the reaction is started with norepinephrine solution (41.2 μL) (10 nM, in a carrier solution containing water (100 mL), BSA (4 mg), and 0.1 M EDTA (20 μL))and adenosine deaminase (1 μg/mL, 41.2 μl). After sixty minutes in the shaker the reaction is terminated by putting the vials on ice. […] The hard lipid layer is removed by aspiration and the aqueous layer is assayed for glycerol (400 μl of sample). The positive control is done in the absence of any adenosine agonist, substituting water in place of the solution to be tested.

[2] = Rattus norvegicus, Adipocyte, 1 h

EC50 [1, 2]	melting point	EC50 [1]	SMILES
92.5 nM	–	–	COC[C@H]1C[C@@H](n2cnc3c(N[C@H]4CCN(c5cc(Cl)ncn5)C4)ncnc32)[C@H](O)[C@@H]1O [Example 46, (1R,2S,3R,5R)-3-[6-[1-(6-chloropyrimidin-4-yl)pyrrolidin-3(S)-ylamino]-purin-9-yl]-5-methoxymethylcyclopentane-1,2-diol]
17 nM	110 to 111 °C	–	COC[C@H]1C[C@@H](n2cnc3c(N[C@H]4CCN(c5ccc(Br)cn5)C4)ncnc32)[C@H](O)[C@@H]1O [Example 52, (1R,2S,3R,5R)-3-[6-[1-(5-bromopyridin-2-yl)pyrrolidin-3(S)-ylamino]-purin-9-yl]-5-methoxymethylcyclopentane-1,2-diol]
3.57 nM	110 to 111 °C	–	OC[C@H]1C[C@@H](n2cnc3c(N[C@H]4CCN(c5ccc(C(F)(F)F)cn5)C4)ncnc32)[C@H](O)[C@@H]1O [Example 29, (1R,2S,3R,5R)-5-hydroxymethyl-3-[6-[1-(5-trifluoromethylpyridin-2-yl)pyrrolidin-3(S)-ylamino]-purin-9-yl]cyclopentane-1,2-diol]
–	–	18.6 nM	COC[C@H]1C[C@@H](n2cnc3c(N[C@H]4CCN(c5ccc(Cl)cn5)C4)ncnc32)[C@H](O)[C@@H]1O [Example 53, (1R,2S,3R,5R)-3-[6-[1-(5-chlorpyridin-2-yl)pyrrolidin-3(S)-ylamino]-purin-9-yl]-5-methoxymethylcyclopentane-1,2-diol]
178 nM	160 °C (dec.)	–	Cl.Cl.OC[C@H]1C[C@@H](n2cnc3c(N[C@H]4CCNC4)ncnc32)[C@H](O)[C@@H]1O [Example 26, (1R,2S,3R,5R)-5-hydroxymethyl-3-[6-((3S)-pyrrolidin-3-ylamino)-purin-9-yl]cyclopentane-1,2-diol dihydrochloride]
182 nM	119 to 122 °C	–	OC[C@H]1C[C@@H](n2cnc3c(N[C@H]4CCN(c5nccc6ccccc56)C4)ncnc32)[C@H](O)[C@@H]1O [Example 41, (1R,2S,3R,5R)-5-hydroxymethyl-3-[6-[1-(isoquinolin-1-yl)pyrrolidin-3(S)-ylamino]-purin-9-yl]cyclopentane-1,2-diol]
247 nM	114 to 116 °C	–	C[C@H]1C[C@@H](n2cnc3c(N[C@H]4CCN(c5ccc(C(F)(F)F)cn5)C4)ncnc32)[C@H](O)[C@@H]1O [Example 31, (1R,2S,3R,5S)-5-methyl-3-[6-[1-(5-trifluoromethylpyridin-2-yl)pyrrolidin-3(S)-ylamino]-purin-9-yl]cyclopentane-1,2-diol]
18.6 nM	122 to 124 °C	–	COC[C@H]1C[C@@H](n2cnc3c(N[C@H]4CCN(c5ccc(Cl)nn5)C4)ncnc32)[C@H](O)[C@@H]1O [Example 51, (1R,2S,3R,5R)-3-[6-[1-(6-chloropyridazin-3-yl)pyrrolidin-3(S)-ylamino]-purin-9-yl]-5-methoxymethylcyclopentane-1,2-diol]
63.5 nM	131 to 133 °C	–	OC[C@H]1C[C@@H](n2cnc3c(N[C@H]4CCN(c5cccc(Cl)c5)C4)ncnc32)[C@H](O)[C@@H]1O [Example 57, (1R,2S,3R,5R)-3-[6-[1-(3-chlorophenyl)-pyrrolidin-3(S)-ylamino]-purin-9-yl]-5-hydroxymethylcyclopentane-1,2-diol]
129 nM	–	–	OC[C@H]1C[C@@H](n2cnc3c(N[C@H]4CCN(c5ccc(Cl)nn5)C4)ncnc32)[C@H](O)[C@@H]1O [Example 47, (1R,2S,3R,5R)-3-[6-[1-(6-chloropyridazin-3-yl)pyrrolidin-3(S)-ylamino]-purin-9-yl]-5-hydroxymethylcyclopentane-1,2-diol]
1.37 nM	251 to 253 °C	–	COc1cc(N2CC[C@H](Nc3ncnc4c3ncn4[C@@H]3O[C@H](CO)[C@@H](O)[C@H]3O)C2)ncn1 [Example 20, (2R,3R,4S,5R)-5-hydroxymethyl-2-[6-[1-(6-methoxypyrimidin-4-yl)pyrrolidin-3(S)-ylamino]-purin-9-yl]tetrahydrofuran-3,4-diol]
3.3 nM	122 to 125 °C	–	COC[C@H]1C[C@@H](n2cnc3c(N[C@H]4CCN(c5ccc(Cl)cc5)C4)ncnc32)[C@H](O)[C@@H]1O [Example 55, (1R,2S,3R,5R)-3-[6-[1-(4-chlorophenyl)-pyrrolidin-3(S)-ylamino]-purin-9-yl]-5-methoxymethylcyclopentane-1,2-diol]
4.2 nM	118 to 121 °C	–	OC[C@H]1C[C@@H](n2cnc3c(N[C@H]4CCN(c5ccc(Cl)cn5)C4)ncnc32)[C@H](O)[C@@H]1O [Example 33, (1R,2S,3R,5R)-3-[6-[1-(5-chloropyridin-2-yl)pyrrolidin-3(S)-ylamino]-purin-9-yl]-5-hydroxymethylcyclopentane-1,2-diol]
27.8 nM	128 °C	–	COC[C@H]1C[C@@H](n2cnc3c(N[C@H]4CCN(c5ccc(C(F)(F)F)cc5)C4)ncnc32)[C@H](O)[C@@H]1O [Example 54, (1R,2S,3R,5R)-5-methoxymethyl-3-[6-[1-(4-trifluoromethylphenyl)pyrrolidin-3(S)-ylamino]-purin-9-yl]cyclopentane-1,2-diol]
48 nM	110 to 112 °C	–	OC[C@H]1C[C@@H](n2cnc3c(N[C@H]4CCN(c5ccccn5)C4)ncnc32)[C@H](O)[C@@H]1O [Example 35, (1R,2S,3R,5R)-5-hydroxymethyl-3-[6-[1-(pyridin-2-yl)pyrrolidin-3(S)-ylamino]-purin-9-yl]cyclopentane-1,2-diol]
10.5 nM	140 °C	–	N#Cc1ccc(N2CC[C@H](Nc3ncnc4c3ncn4[C@@H]3C[C@H](CO)[C@@H](O)[C@H]3O)C2)cc1 [Example 40, 4-[3(S)-[9-((1R,2S,3R,5R)-1,2-dihydroxy-5-hydroxymethylcyclopent-3-yl)-9H-purin-6-ylamino]pyrrolidin-1-yl]benzonitrile]
–	–	114 nM	OC[C@H]1C[C@@H](n2cnc3c(N[C@H]4CCN(c5cc(C(F)(F)F)c(C(F)(F)F)cn5)C4)ncnc32)[C@H](O)[C@@H]1O [Example 38, (1R,2S,3R,5R)-3-[6-[1-(4,5-bistrifluorpyridin-2-yl)pyrrolidin-3(S)-ylamino]-purin-9-yl]-5-hydroxymethylcyclopentane-1,2-diol]
365 nM	–	–	CC(C)OC[C@H]1C[C@@H](n2cnc3c(N[C@H]4CCN(c5cc(C(F)(F)F)ccn5)C4)ncnc32)[C@H](O)[C@@H]1O [Example 50, (1R,2S,3R,5R)-5-isopropoxymethyl-3-[6-[1-(4-trifluoromethylpyridin2-yl)pyrrolidin-3(S)-ylamino]-purin-9-yl]cyclopentane-1,2-diol]
2.24 nM	–	–	OC[C@H]1O[C@@H](n2cnc3c(N[C@H]4CCN(c5ccc(-c6cccs6)cn5)C4)ncnc32)[C@H](O)[C@@H]1O [Example 18, (2R,3R,4S,5R)-5-hydroxymethyl-2-[6-[1-(5-thiophen-2-ylpyridin-2-yl)-pyrrolidin-3(S)-ylamino]-purin-9-yl]tetrahydrofuran-3,4-diol]
2.43 nM	–	–	OC[C@H]1O[C@@H](n2cnc3c(N[C@H]4CCN(c5cc(Cl)ncn5)C4)ncnc32)[C@H](O)[C@@H]1O [Example 21, (2R,3R,4S,5R)-5-hydroxymethyl-2-[6-[1-(6-chloropyrimidin-4-yl)pyrrolidin-3(S)-ylamino]-purin-9-yl]-tetrahydrofuran-3,4-diol]
–	–	10.9 nM	CC(C)NC(=O)[C@H]1C[C@@H](n2cnc3c(N[C@H]4CCN(c5cc(C(F)(F)F)ccn5)C4)ncnc32)[C@H](O)[C@@H]1O [Example 2, (1S,2R,3S,4R)-2,3-dihydroxy-4-[6-[1-(4-trifluormethylpyridin-2-yl)pyrrolidin-3(S)-ylamino]purin-9-yl]cyclopentanecarboxylic acid isopropylamide]

SMILES	EC50 [1, 2]	melting point	EC50 [1]
O=C1C[C@H](Nc2ncnc3c2ncn3[C@@H]2C[C@H](CO)[C@@H](O)[C@H]2O)CN1Cc1ccccc1 [Example 6, 4(S)-1-benzyl-4-[9-((1R,2S,3R,5R)-1,2-dihydroxy-5-hydroxymethylcyclopent-3-yl)-9H-purin-6-ylamino]pyrrolidin-2-one]	–	–	267 nM
